The subject of this assay is AKR/Lw mice, AKR lymphoma ip, median survival T/C. As to the kind of experiment: NCI In Vivo Anticancer Drug Screen. Data for tumor model Lymphoma AKR (Transplanted) (intraperitoneal) in AKR/Lw mice. The conditions noted are these: endpoint: median survival time, higher = longer survival. The protocol:
The antitumor activity of compounds was measured in mice bearing transplantable tumors. Survival or tumor size were measured and the results are expressed as the measurement made in the treated group (T) divided by the measurement made in the vehicle treated control group (C). The tumor model used in this assay is Lymphoma AKR (Transplanted) (intraperitoneal) in AKR/Lw mice

Setting [1] is: dose: 1.25 mg/kg/injection, schedule: Q01DX009 (ip), vehicle: saline.
[2] abbreviates: dose: 12.5 mg/kg/injection, schedule: Q01DX001 (ip), vehicle: saline.
[3] abbreviates: dose: 100.0 mg/kg/injection, schedule: Q01DX001 (ip), vehicle: Klucel (hydroxypropylcellulose) (HPC).
Setting [4] is: dose: 100.0 mg/kg/injection, schedule: Q04DX003 (ip), vehicle: saline.
Where [5] appears, read: dose: 100.0 mg/kg/injection, schedule: Q01DX001 (ip), vehicle: saline.
[6] abbreviates: dose: 200.0 mg/kg/injection, schedule: Q01DX001 (ip), vehicle: saline.
Setting [7] is: dose: 400.0 mg/kg/injection, schedule: Q01DX001 (ip), vehicle: saline.

Consider five compounds from PubChem BioAssay AID190 (DTP/NCI, 2004).

“And” between values parts separate entries of the source, which are not always exact repeats. Equal values may be shown once. Inconclusive results and toxic doses are left out.

Take `Cc1c2ccncc2c(C)c2c1[nH]c1ccccc12`: the T/C is 87 % of control (dose: 1.2 mg/kg/injection, schedule: Q01DX009 (ip), vehicle: Klucel (hydroxypropylcellulose) (HPC)); 165 % of control under setting [1]; 90 % of control and 118 % of control (dose: 1.5 mg/kg/injection, schedule: Q01DX009 (ip), vehicle: saline); 104 % of control and 121 % of control (dose: 3.0 mg/kg/injection, schedule: Q01DX009 (ip), vehicle: saline); 111 % of control (dose: 5.0 mg/kg/injection, schedule: Q01DX009 (ip), vehicle: saline); 116 % of control (dose: 6.0 mg/kg/injection, schedule: Q01DX009 (ip), vehicle: saline). The T/C was 88 % of control (dose: 7.5 mg/kg/injection, schedule: Q04DX003 (ip), vehicle: Klucel (hydroxypropylcellulose) (HPC)); 96 % of control (dose: 7.5 mg/kg/injection, schedule: Q04DX003 (ip), vehicle: saline); 152 % of control (dose: 10.0 mg/kg/injection, schedule: Q01DX009 (ip), vehicle: saline); 97 % of control (dose: 12.5 mg/kg/injection, schedule: Q01DX001 (ip), vehicle: Klucel (hydroxypropylcellulose) (HPC)); 124 % of control under setting [2]; 103 % of control (dose: 15.0 mg/kg/injection, schedule: Q01DX009 (ip), vehicle: Klucel (hydroxypropylcellulose) (HPC)). In addition, the T/C is 119 % of control (dose: 15.0 mg/kg/injection, schedule: Q04DX003 (ip), vehicle: Klucel (hydroxypropylcellulose) (HPC)); 112 % of control (dose: 15.0 mg/kg/injection, schedule: Q04DX003 (ip), vehicle: saline); 111 % of control and 116 % of control and 117 % of control (dose: 18.75 mg/kg/injection, schedule: Q04DX003 (ip), vehicle: saline); 105 % of control (dose: 18.8 mg/kg/injection, schedule: Q04DX003 (ip), vehicle: Klucel (hydroxypropylcellulose) (HPC)); 86 % of control (dose: 20.0 mg/kg/injection, schedule: Q01DX009 (ip), vehicle: Klucel (hydroxypropylcellulose) (HPC)); 111 % of control (dose: 20.0 mg/kg/injection, schedule: Q01DX009 (ip), vehicle: saline). Also, the T/C reads like this: (dose: 20.0 mg/kg/injection, schedule: Q04DX003 (ip), vehicle: Klucel (hydroxypropylcellulose) (HPC)) 119 % of control; (dose: 25.0 mg/kg/injection, schedule: Q01DX001 (ip), vehicle: Klucel (hydroxypropylcellulose) (HPC)) 123 % of control; (dose: 25.0 mg/kg/injection, schedule: Q01DX001 (ip), vehicle: saline) 120 % of control; (dose: 25.0 mg/kg/injection, schedule: Q01DX005 (ip), vehicle: water) 263 % of control; (dose: 25.0 mg/kg/injection, schedule: Q04DX003 (ip), vehicle: Klucel (hydroxypropylcellulose) (HPC)) 153 % of control; (dose: 30.0 mg/kg/injection, schedule: Q04DX003 (ip), vehicle: Klucel (hydroxypropylcellulose) (HPC)) 104 % of control and 111 % of control. The T/C runs as follows: (dose: 35.0 mg/kg/injection, schedule: Q04DX003 (ip), vehicle: Klucel (hydroxypropylcellulose) (HPC)) 116 % of control; (dose: 50.0 mg/kg/injection, schedule: Q01DX001 (ip), vehicle: Klucel (hydroxypropylcellulose) (HPC)) 118 % of control; (dose: 50.0 mg/kg/injection, schedule: Q01DX005 (ip), vehicle: water) 197 % of control; (dose: 50.0 mg/kg/injection, schedule: Q04DX003 (ip), vehicle: Klucel (hydroxypropylcellulose) (HPC)) 153 % of control; (dose: 50.0 mg/kg/injection, schedule: Q04DX003 (ip), vehicle: water) 226 % of control; (dose: 75.0 mg/kg/injection, schedule: Q01DX001 (ip), vehicle: Klucel (hydroxypropylcellulose) (HPC)) 123 % of control. For the same compound, the T/C under setting [3] was 111 % of control and 121 % of control; the T/C (dose: 100.0 mg/kg/injection, schedule: Q04DX003 (ip), vehicle: Klucel (hydroxypropylcellulose) (HPC)) is 107 % of control; the T/C under setting [4] was 100 % of control; the T/C (dose: 100.0 mg/kg/injection, schedule: Q04DX003 (ip), vehicle: water) was 315 % of control; the T/C (dose: 150.0 mg/kg/injection, schedule: Q01DX001 (ip), vehicle: Klucel (hydroxypropylcellulose) (HPC)) was 102 % of control; the T/C (dose: 150.0 mg/kg/injection, schedule: Q01DX001 (ip), vehicle: saline) is 115 % of control.
For `CC(=O)c1cccc(N)c1`, the T/C reads like this: under setting [3], 93 % of control and 105 % of control; (dose: 200.0 mg/kg/injection, schedule: Q01DX001 (ip), vehicle: Klucel (hydroxypropylcellulose) (HPC)) 91 % of control; (dose: 400.0 mg/kg/injection, schedule: Q01DX001 (ip), vehicle: Klucel (hydroxypropylcellulose) (HPC)) 94 % of control and 122 % of control; (dose: 600.0 mg/kg/injection, schedule: Q01DX001 (ip), vehicle: Klucel (hydroxypropylcellulose) (HPC)) 94 % of control.
For the compound `O=C(O)C12CCC(CC1)C2`, the T/C is 110 % of control (dose: 25.0 mg/kg/injection, schedule: Q04DX003 (ip), vehicle: saline); 102 % of control (dose: 50.0 mg/kg/injection, schedule: Q04DX003 (ip), vehicle: saline); 103 % of control under setting [5]; 100 % of control under setting [4]; 105 % of control under setting [6]; 105 % of control under setting [7].
Take `CC[C@H]1CN2CCc3cc(OC)c(OC)cc3[C@@H]2C[C@@H]1C[C@H]1NCCc2cc(OC)c(OC)cc21`: the T/C runs as follows: (dose: 0.5 mg/kg/injection, schedule: Q01DX009 (ip), vehicle: saline) 100 % of control; (dose: 0.75 mg/kg/injection, schedule: Q04DX003 (ip), vehicle: saline) 87 % of control; (dose: 1.0 mg/kg/injection, schedule: Q01DX009 (ip), vehicle: saline) 96 % of control and 107 % of control; under setting [1], 102 % of control; (dose: 1.5 mg/kg/injection, schedule: Q04DX003 (ip), vehicle: saline) 87 % of control; (dose: 2.0 mg/kg/injection, schedule: Q01DX009 (ip), vehicle: saline) 96 % of control. In addition, the T/C was 100 % of control (dose: 2.5 mg/kg/injection, schedule: Q01DX009 (ip), vehicle: saline with Tween-80); 95 % of control (dose: 3.0 mg/kg/injection, schedule: Q01DX001 (ip), vehicle: saline); 97 % of control (dose: 3.0 mg/kg/injection, schedule: Q04DX003 (ip), vehicle: saline); 122 % of control (dose: 5.0 mg/kg/injection, schedule: Q01DX009 (ip), vehicle: saline with Tween-80); 95 % of control (dose: 5.0 mg/kg/injection, schedule: Q04DX003 (ip), vehicle: saline); 111 % of control (dose: 6.0 mg/kg/injection, schedule: Q01DX001 (ip), vehicle: saline). Besides, the T/C (dose: 6.0 mg/kg/injection, schedule: Q04DX003 (ip), vehicle: saline) was 96 % of control and 118 % of control; the T/C (dose: 6.2 mg/kg/injection, schedule: Q01DX001 (ip), vehicle: saline) was 105 % of control; the T/C (dose: 6.2 mg/kg/injection, schedule: Q04DX003 (ip), vehicle: saline) is 96 % of control and 100 % of control and 124 % of control; the T/C (dose: 6.25 mg/kg/injection, schedule: Q04DX003 (ip), vehicle: saline) was 116 % of control and 117 % of control; the T/C (dose: 7.5 mg/kg/injection, schedule: Q01DX001 (ip), vehicle: saline) was 111 % of control; the T/C (dose: 10.0 mg/kg/injection, schedule: Q01DX009 (ip), vehicle: saline with Tween-80) is 106 % of control. The T/C was 115 % of control (dose: 12.0 mg/kg/injection, schedule: Q01DX001 (ip), vehicle: saline); 103 % of control and 113 % of control under setting [2]; 117 % of control (dose: 15.0 mg/kg/injection, schedule: Q01DX001 (ip), vehicle: saline).
As to `C/C(=C\Cl)CN1C(=O)c2ccccc2C1=O`, the T/C is 93 % of control under setting [5], 102 % of control under setting [6] and 93 % of control under setting [7].
